Target: Sucrose Phosphate Synthase (Zea mays, UniProt P31927)
Settings: phosphate gradient of the HAC (hydroxyapatite) stage
Procedure: During purification SPS activity is followed in 2 ways : • a) either by means of a colorimetric test (P.S. Kerr et al., Planta., 1987, 170 : 515-519) called resorcinol test described below. […] In practice, to 45 µl (microliter) of enzymatic preparation 25 µl of a buffered solution containing the two substrates is added (UDPG 70 mM, F6P 28 mM, MgCl2 15 mM, HEPES 25 mM pH 7,5). After incubation at 37°C, reaction is stopped by adding 70 µl of NaOH in solution and heating at 95°C during 10 mn. After cooling, 0,25 ml of a solution 0,1 % resorcinol in ethanol 95 % is added, then 0,75 ml of HCl 30 % is added. The OD 520 mM is read after incubation 8 mn at 80 mn, and cooling. • b) or by means of a coupled enzymatic system (S. Harbron et al., Anal. Biochem. 1980, 107 : 56-59) being composed in the following way : [drawing 3]
The disappearance of the NADH absorption at 340 nm is monitored 1 mole of NAD formed or 1 mole of NADH consumed corresponds to 1 mole of sucrose 6 P formed.
In pratice, in a quartz spectrophotometric tun thermostated at 37°C, the following solution are added. • 540 µl of HEPES buffered 50 mM, MgCl2 10 mM KCl 20 mM pH=7.5, • 250 µl of a mixture of substrates PEP (1,6 mM NaDH 0,6 mM, ATP 4 mM UDPG 112 mM), • 60 µl of an enzyme mixture (LDH 166,7 U/ml PK 333,3 U/ml, NPzK 66,7 U/ml), • 100 µl of F6P 112 mM. […]

Sucrose Phosphate Synthase, sequence (P31927 whole entry): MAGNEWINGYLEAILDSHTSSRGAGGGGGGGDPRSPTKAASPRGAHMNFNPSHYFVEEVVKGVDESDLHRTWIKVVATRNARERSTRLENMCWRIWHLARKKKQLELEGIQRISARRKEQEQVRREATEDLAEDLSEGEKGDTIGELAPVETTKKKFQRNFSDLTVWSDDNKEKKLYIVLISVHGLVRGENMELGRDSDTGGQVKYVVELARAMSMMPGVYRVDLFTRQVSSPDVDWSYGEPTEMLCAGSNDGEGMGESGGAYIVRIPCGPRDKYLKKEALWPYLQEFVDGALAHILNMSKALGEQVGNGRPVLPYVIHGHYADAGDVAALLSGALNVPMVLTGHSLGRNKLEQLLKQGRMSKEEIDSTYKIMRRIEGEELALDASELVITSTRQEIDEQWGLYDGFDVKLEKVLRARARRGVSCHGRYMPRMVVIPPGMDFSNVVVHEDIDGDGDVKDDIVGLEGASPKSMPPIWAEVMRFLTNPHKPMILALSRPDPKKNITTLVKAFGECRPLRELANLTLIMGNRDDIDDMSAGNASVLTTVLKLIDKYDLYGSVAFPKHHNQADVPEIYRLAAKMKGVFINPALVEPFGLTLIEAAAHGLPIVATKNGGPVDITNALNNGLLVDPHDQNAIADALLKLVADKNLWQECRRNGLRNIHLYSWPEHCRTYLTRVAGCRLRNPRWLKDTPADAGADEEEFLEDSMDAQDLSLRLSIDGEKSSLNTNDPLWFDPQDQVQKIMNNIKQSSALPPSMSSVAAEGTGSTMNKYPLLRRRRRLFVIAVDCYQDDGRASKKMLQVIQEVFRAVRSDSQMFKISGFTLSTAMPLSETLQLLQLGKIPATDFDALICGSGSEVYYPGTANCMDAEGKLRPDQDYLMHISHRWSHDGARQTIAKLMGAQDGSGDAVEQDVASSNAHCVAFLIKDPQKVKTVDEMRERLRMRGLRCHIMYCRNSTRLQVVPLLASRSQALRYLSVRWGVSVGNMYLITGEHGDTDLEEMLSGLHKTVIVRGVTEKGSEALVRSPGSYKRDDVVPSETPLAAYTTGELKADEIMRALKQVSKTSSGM

## phosphate
  inhibition of SPS activity: partially inhibit SPS activity
